Assay in all cases: Kinase inhibitor library screening, PrestoBlue cell viability, 1 or 10 μM, 72 h
For one experiment, the system named is 501Mel cells (parental). The note with it: 72 h; for viability at 1 µM / viability at 10 µM: Homo sapiens; for viability at 1 µM: read-out: cell viability, 501Mel Parental, 1μΜ; for viability at 10 µM: read-out: cell viability, 501Mel Parental, 10μΜ. In a few lines: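 Normalised to untreated controls, viability percentages came from PrestoBlue measured on a microplate reader following 72 h incubation with drug. Each line was assayed at least twice.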

In experiment [1] the test system is 501Mel-GP cells (Dabrafenib-resistant). The note with it: 72 h; for viability at 1 µM / viability at 10 µM: Homo sapiens; for viability at 1 µM: read-out: cell viability, 501Mel GP, 1μΜ; for viability at 10 µM: read-out: cell viability, 501Mel GP, 10μΜ.
The subject of experiment [2] is 501Mel-XP cells (Vemurafenib-resistant). The settings on record: 72 h; for viability at 1 µM / viability at 10 µM: Homo sapiens; for viability at 1 µM: read-out: cell viability, 501Mel XP, 1μΜ; for viability at 10 µM: read-out: cell viability, 501Mel XP, 10μΜ.
For another experiment, the system named is A375 cells (parental). The note with it: for viability at 1 µM / viability at 10 µM: Homo sapiens, A-375, 72 h; for viability at 1 µM: read-out: cell viability, A375 Parental, 1μΜ; for viability at 10 µM: read-out: cell viability, A375 Parental, 10μΜ.
The test system of experiment [3] is A375-GP cells (Dabrafenib-resistant). The settings on record: for viability at 1 µM / viability at 10 µM: Homo sapiens, A-375, 72 h; for viability at 1 µM: read-out: cell viability, A375 GP, 1μΜ; for viability at 10 µM: read-out: cell viability, A375 GP, 10μΜ.
Experiment [4] concerns A375-XP cells (Vemurafenib-resistant). The note with it: for viability at 1 µM / viability at 10 µM: Homo sapiens, A-375, 72 h; for viability at 1 µM: read-out: cell viability, A375 XP, 1μΜ; for viability at 10 µM: read-out: cell viability, A375 XP, 10μΜ.
In the next experiment the test system is IGR37 cells (parental). The settings on record: for viability at 1 µM / viability at 10 µM: Homo sapiens, IGR-37, 72 h; for viability at 1 µM: read-out: cell viability, IGR37 Parental, 1μΜ; for viability at 10 µM: read-out: cell viability, IGR37 Parental, 10μΜ.
Experiment [5] has as its system IGR37-GP cells (Dabrafenib-resistant). The note with it: for viability at 1 µM / viability at 10 µM: Homo sapiens, IGR-37, 72 h; for viability at 1 µM: read-out: cell viability, IGR37 GP, 1μΜ; for viability at 10 µM: read-out: cell viability, IGR37 GP, 10μΜ.
Experiment [6] concerns IGR37-XP cells (Vemurafenib-resistant). The note with it: for viability at 1 µM / viability at 10 µM: Homo sapiens, IGR-37, 72 h; for viability at 1 µM: read-out: cell viability, IGR37 XP, 1μΜ; for viability at 10 µM: read-out: cell viability, IGR37 XP, 10μΜ.

Data on six molecules can be found in paper PMC6364417, “Kinase inhibitor library screening identifies synergistic drug combinations effective in sensitive and resistant melanoma cells” (Journal of Experimental & Clinical Cancer Research : CR, 2019).

Turning to `Cc1cc(Nc2cc(N3CCN(C)CC3)nc(/C=C/c3ccccc3)n2)n[nH]1` [ENMD-2076], the viability (as a rule, a read-out of living cells in per cent, often relative to untreated cells) at 1 µM is 97% in the experiment on 501Mel cells (parental); 99.4% in experiment [1]; 69.3% in experiment [2]; 67.6% with A375 cells (parental); 65.8% in [3]; 79.9% in experiment [4]. Further, the viability at 1 µM with IGR37 cells (parental) stood at 96.5%; in [5] it was 90.4%; in [6], 89.3%. Besides, the viability at 10 µM in the experiment on 501Mel cells (parental) is 3.4%; in experiment [1], 25.5%; in [2], 1.1%; in the experiment on A375 cells (parental), 21.2%; in experiment [3] it was 20.9%; in experiment [4], 19.2%. Besides, the results for the viability at 10 µM (in the experiment on IGR37 cells (parental); in [5]; in [6]) were 25.6%, 5.2% and 2.2%, respectively.

Take `CNC(=O)CN1CCC(Oc2cc3c(Nc4cccc(Cl)c4F)ncnc3cc2OC)CC1` [AZD8931]: the viability at 1 µM came out at 90.5% in the experiment with 501Mel cells (parental); 100% in experiment [1]; 94.5% in [2]; 96.7% with A375 cells (parental); 103% in experiment [3]; 96.5% in experiment [4]. The viability at 1 µM in the experiment on IGR37 cells (parental) was 96.3%; in experiment [5], 90.4%; in [6], 71.9%. In addition, the viability at 10 µM amounted to 86% in the experiment on 501Mel cells (parental); 79.7% in experiment [1]; 68.3% in experiment [2]; 83.8% with A375 cells (parental); 74.8% in experiment [3]; 86% in experiment [4]. The figures for the viability at 10 µM (with IGR37 cells (parental); in experiment [5]; in experiment [6]) were 98.9%, 78% and 50%, respectively.

Turning to `CC(C)(C)c1nc(-c2cccc(NS(=O)(=O)c3c(F)cccc3F)c2F)c(-c2ccnc(N)n2)s1` [Dabrafenib (GSK2118436)], the “Cell viability in kinase inhibitor library screening, 501Mel Parental, 1μΜ” value in the experiment on 501Mel cells (parental) (501Mel Parental, 1μΜ, in %) stood at 51.2. In the experiment with 501Mel cells (parental) (501Mel Parental, 10μΜ, in %), the “Cell viability in kinase inhibitor library screening, 501Mel Parental, 10μΜ” value was found to be 72.8. In addition, the “Cell viability in kinase inhibitor library screening, 501Mel GP, 1μΜ” value in experiment [1] (501Mel GP, 1μΜ, in %) is 96.2. Besides, the “Cell viability in kinase inhibitor library screening, 501Mel GP, 10μΜ” value in experiment [1] (501Mel GP, 10μΜ, in %) was 92.9. For the same molecule, the “Cell viability in kinase inhibitor library screening, 501Mel XP, 1μΜ” value in experiment [2] (501Mel XP, 1μΜ, in %) is recorded as 79.2. In addition, the “Cell viability in kinase inhibitor library screening, 501Mel XP, 10μΜ” value in [2] (501Mel XP, 10μΜ, in %) is reported as 97.5. Moreover, in the experiment on A375 cells (parental) (A375 Parental, 10μΜ, 72 h), the “Cell viability in kinase inhibitor library screening, A375 Parental, 10μΜ” value was determined as 26.9. For the same molecule, the “Cell viability in kinase inhibitor library screening, A375 Parental, 1μΜ” value with A375 cells (parental) (A375 Parental, 1μΜ, 72 h) stood at 17.6. The “Cell viability in kinase inhibitor library screening, A375 GP, 1μΜ” value in [3] (A375 GP, 1μΜ, 72 h) was 65.8. Besides, in [3] (A375 GP, 10μΜ, 72 h), the “Cell viability in kinase inhibitor library screening, A375 GP, 10μΜ” value is 52.9. The “Cell viability in kinase inhibitor library screening, A375 XP, 1μΜ” value in [4] (A375 XP, 1μΜ, 72 h) is 73.0. Also, the “Cell viability in kinase inhibitor library screening, A375 XP, 10μΜ” value in [4] (A375 XP, 10μΜ, 72 h) was 48.7. The “Cell viability in kinase inhibitor library screening, IGR37 Parental, 1μΜ” value in the experiment with IGR37 cells (parental) (IGR37 Parental, 1μΜ, 72 h, in %) came to 34.2. In addition, the “Cell viability in kinase inhibitor library screening, IGR37 Parental, 10μΜ” value with IGR37 cells (parental) (IGR37 Parental, 10μΜ, 72 h, in %) was determined as 44.5. The molecule further returned a Cell viability in kinase inhibitor library screening, IGR37 GP, 10μΜ in experiment [5] (IGR37 GP, 10μΜ, 72 h) of 97.8%. Moreover, in experiment [5] (IGR37 GP, 1μΜ, 72 h, in %), the “Cell viability in kinase inhibitor library screening, IGR37 GP, 1μΜ” value is listed as 94.6. In experiment [6] (IGR37 XP, 10μΜ, 72 h), the Cell viability in kinase inhibitor library screening, IGR37 XP, 10μΜ turned out to be 78.9%. Further, in experiment [6] (IGR37 XP, 1μΜ, 72 h, in %), the “Cell viability in kinase inhibitor library screening, IGR37 XP, 1μΜ” value is 93.2.

Regarding `O=C(Nc1ccc(OC(F)(F)F)cc1)c1sccc1NCc1ccnc2ccccc12` [OSI-930], the “cell viability (kinase inhibitor library screening)” value in the experiment on 501Mel cells (parental) (501Mel Parental, 1μΜ) was 100.2%; with 501Mel cells (parental) (501Mel Parental, 10μΜ), 85.8%; in experiment [1] (501Mel GP, 1μΜ) it was 96.5%; in experiment [1] (501Mel GP, 10μΜ) it was 73.5%; in [2] (501Mel XP, 1μΜ) it was 92.9%; in experiment [2] (501Mel XP, 10μΜ), 73.6%. Besides, the “cell viability (kinase inhibitor library screening)” value in the experiment with A375 cells (parental) (A375 Parental, 10μΜ, 72 h) amounted to 77.6%; with A375 cells (parental) (A375 Parental, 1μΜ, 72 h), 97.9%; in [3] (A375 GP, 1μΜ, 72 h) it was 86.8%; in experiment [3] (A375 GP, 10μΜ, 72 h) it was 55.3%; in experiment [4] (A375 XP, 1μΜ, 72 h), 93.4%; in experiment [4] (A375 XP, 10μΜ, 72 h) it was 71.6%. In addition, the “cell viability (kinase inhibitor library screening)” value was determined as 96.0% in the experiment on IGR37 cells (parental) (IGR37 Parental, 1μΜ, 72 h); 89.7% in the experiment on IGR37 cells (parental) (IGR37 Parental, 10μΜ, 72 h); 88.5% in experiment [5] (IGR37 GP, 1μΜ, 72 h); 90.3% in experiment [5] (IGR37 GP, 10μΜ, 72 h); 100.2% in experiment [6] (IGR37 XP, 1μΜ, 72 h); 70.0% in [6] (IGR37 XP, 10μΜ, 72 h).

Take `Cc1[nH]c(/C=C2\C(=O)Nc3ccc(S(=O)(=O)Cc4c(Cl)cccc4Cl)cc32)c(C)c1C(=O)N1CCC[C@@H]1CN1CCCC1` [PHA-665752]: the “cell viability (kinase inhibitor library screening)” value was 100.2% in the experiment with 501Mel cells (parental) (501Mel Parental, 1μΜ); 0.232% with 501Mel cells (parental) (501Mel Parental, 10μΜ); 86.9% in experiment [1] (501Mel GP, 1μΜ); -0.7% in experiment [1] (501Mel GP, 10μΜ); 70.6% in experiment [2] (501Mel XP, 1μΜ); -0.7% in [2] (501Mel XP, 10μΜ). Further, the “cell viability (kinase inhibitor library screening)” value in the experiment with A375 cells (parental) (A375 Parental, 10μΜ, 72 h) worked out at 1.9%; in the experiment with A375 cells (parental) (A375 Parental, 1μΜ, 72 h) it was 98.9%; in experiment [3] (A375 GP, 1μΜ, 72 h) it was 96.1%; in experiment [3] (A375 GP, 10μΜ, 72 h), 0.5%; in experiment [4] (A375 XP, 1μΜ, 72 h) it was 99.9%; in [4] (A375 XP, 10μΜ, 72 h) it was 0.9%. Moreover, the “cell viability (kinase inhibitor library screening)” value is recorded as 99.2% in the experiment with IGR37 cells (parental) (IGR37 Parental, 1μΜ, 72 h); 0.24% in the experiment on IGR37 cells (parental) (IGR37 Parental, 10μΜ, 72 h); 98.8% in [5] (IGR37 GP, 1μΜ, 72 h); 0.8% in experiment [5] (IGR37 GP, 10μΜ, 72 h); 0.9% in experiment [6] (IGR37 XP, 10μΜ, 72 h).

For the molecule `N#CC[C@H](C1CCCC1)n1cc(-c2ncnc3[nH]ccc23)cn1` [Ruxolitinib (INCB018424)], the viability at 1 µM in the experiment on 501Mel cells (parental) turned out to be 95.6%; in [1], 103%; in experiment [2], 93.9%; in the experiment with A375 cells (parental), 102%; in experiment [3], 95.8%; in [4], 102%. The viability at 1 µM with IGR37 cells (parental) worked out at 97%; in experiment [5] it was 93.2%; in experiment [6] it was 103%. For the same molecule, the viability at 10 µM is 96.5% with 501Mel cells (parental); 87.9% in [1]; 86.6% in experiment [2]; 92.9% in the experiment on A375 cells (parental); 88.9% in [3]; 106% in [4]. Also, the viability at 10 µM with IGR37 cells (parental) is 96.3%; in experiment [5], 88.6%; in experiment [6] it was 76.6%.
